{"source": "paper doi:10.1101/202341v1", "about": "“A cell-free synthetic biochemistry platform for raspberry ketone production” (biorxiv, 2017)", "key": {"CurA [1]": {"molecular_target": "T1, CurA (Escherichia coli, UniProt P76113)", "T1 construct": "N-terminal His6-tag; expressed in E. coli BL21 Gold (DE3) pLysS; apo form", "T1 sequence (P76113 1-345)": "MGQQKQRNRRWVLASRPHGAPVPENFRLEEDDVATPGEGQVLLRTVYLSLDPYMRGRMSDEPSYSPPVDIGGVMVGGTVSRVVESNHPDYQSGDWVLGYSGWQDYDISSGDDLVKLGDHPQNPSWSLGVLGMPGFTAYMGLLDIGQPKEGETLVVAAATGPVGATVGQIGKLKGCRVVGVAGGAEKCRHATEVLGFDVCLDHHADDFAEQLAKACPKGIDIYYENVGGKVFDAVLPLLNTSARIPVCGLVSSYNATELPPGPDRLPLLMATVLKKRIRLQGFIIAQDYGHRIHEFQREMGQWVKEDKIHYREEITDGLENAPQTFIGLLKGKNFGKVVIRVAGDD", "experiment": "ligand fluorescence in one-pot enzymatic synthesis", "assay_type": "binding", "conditions": "25 uM CurA without NADPH; BDMC formed in situ by TAL, PCL, MatB and CUS"}, "CurA [2]": {"molecular_target": "T1, CurA", "experiment": "ligand fluorescence (excitation […] nm, emission […] nm)", "assay_type": "binding", "conditions": "apo-CurA without NADPH; titration 0-100 uM curcumin with 25 uM CurA; also reduced as substrate when NADPH is added"}, "TAL": {"molecular_target": "T2, TAL (Rhodotorula glutinis, UniProt U5TV35)", "T2 construct": "synthetic gene codon optimised for E. coli; expressed in E. coli BL21-Gold (DE3)", "T2 sequence (U5TV35 1-693)": "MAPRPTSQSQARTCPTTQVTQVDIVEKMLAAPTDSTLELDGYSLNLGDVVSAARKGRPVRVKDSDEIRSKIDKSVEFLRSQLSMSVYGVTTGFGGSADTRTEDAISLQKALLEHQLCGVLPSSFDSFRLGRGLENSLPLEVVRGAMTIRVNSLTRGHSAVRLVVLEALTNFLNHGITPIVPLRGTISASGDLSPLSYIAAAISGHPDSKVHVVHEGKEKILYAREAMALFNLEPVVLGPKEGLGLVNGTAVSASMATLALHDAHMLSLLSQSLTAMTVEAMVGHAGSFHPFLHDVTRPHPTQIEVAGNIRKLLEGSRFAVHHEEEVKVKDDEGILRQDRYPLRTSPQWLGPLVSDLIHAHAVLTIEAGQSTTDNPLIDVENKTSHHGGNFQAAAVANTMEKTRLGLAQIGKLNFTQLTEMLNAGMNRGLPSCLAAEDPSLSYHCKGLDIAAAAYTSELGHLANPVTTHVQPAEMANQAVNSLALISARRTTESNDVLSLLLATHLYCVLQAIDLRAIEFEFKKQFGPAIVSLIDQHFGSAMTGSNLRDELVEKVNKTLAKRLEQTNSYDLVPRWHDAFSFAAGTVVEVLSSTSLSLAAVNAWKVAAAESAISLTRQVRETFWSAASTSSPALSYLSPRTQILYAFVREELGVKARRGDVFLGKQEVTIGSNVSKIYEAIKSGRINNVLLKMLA", "experiment": "individual enzyme activity assay", "assay_type": "biochemical"}}, "data": [{"compound": "O=C(/C=C/c1ccc(O)cc1)CC(=O)/C=C/c1ccc(O)cc1", "note": "[BDMC]", "values": [{"measurement": "ligand fluorescence in one-pot enzymatic synthesis", "setting": "CurA [1]", "result": "used in the absence of NADPH to bind to BDMC/curcumin"}]}, {"compound": "COc1cc(/C=C/C(=O)CC(=O)/C=C/c2ccc(O)c(OC)c2)ccc1O", "note": "[curcumin]", "values": [{"measurement": "ligand fluorescence (excitation 425 nm, emission 520 nm)", "setting": "CurA [2]", "result": "CurA could bind curcumin in the absence of NADPH"}]}, {"compound": "N[C@@H](Cc1ccc(O)cc1)C(=O)O", "note": "[tyrosine]", "values": [{"measurement": "individual enzyme activity assay", "setting": "TAL", "result": "The activity of TAL and PCL enzymes was also assayed individually"}]}]}
